Columns and labels:
Conditions in all cases: 72 h
[1] = system: Caco-2; test: cell viability relative to DMSO; higher = less toxic
[2] = system: Calu-3; test: as above
[3] = system: HepG2; test: as above
[4] = system: U2OS; test: as above
[5] = system: Vero E6; test: as above
[6] = system: Caco-2; test: relative viability EC50 (midpoint between 100% and the lowest measured viability); higher = less toxic
[7] = system: Calu-3; test: as above
[8] = system: HepG2; test: as above
[9] = system: U2OS; test: as above
[10] = system: Vero E6; test: as above
[11] = system: Caco-2; test: drug sensitivity score (DSS) for viability; higher = more toxic; extreme values may be limits of the assay
[12] = system: Calu-3; test: as above
[13] = system: HepG2; test: as above
[14] = system: U2OS; test: as above
[15] = system: Vero E6; test: as above

| SMILES | cell viability ([1]; 1 nM) | cell viability ([1]; 10 nM) | cell viability ([1]; 100 nM) | cell viability ([1]; 1000 nM) | cell viability ([1]; 10000 nM) | cell viability ([2]; 1 nM) | cell viability ([2]; 10 nM) | cell viability ([2]; 100 nM) | cell viability ([2]; 1000 nM) | cell viability ([2]; 10000 nM) | cell viability ([3]; 1 nM) | cell viability ([3]; 10 nM) | cell viability ([3]; 100 nM) | cell viability ([3]; 1000 nM) | cell viability ([3]; 10000 nM) | cell viability ([4]; 1 nM) | cell viability ([4]; 10 nM) | cell viability ([4]; 100 nM) | cell viability ([4]; 1000 nM) | cell viability ([4]; 10000 nM) | cell viability ([5]; 1 nM) | cell viability ([5]; 10 nM) | cell viability ([5]; 100 nM) | cell viability ([5]; 1000 nM) | cell viability ([5]; 10000 nM) | relative viability EC50 [6] | relative viability EC50 [7] | relative viability EC50 [8] | relative viability EC50 [9] | relative viability EC50 [10] | drug sensitivity score [11] | drug sensitivity score [12] | drug sensitivity score [13] | drug sensitivity score [14] | drug sensitivity score [15] |
| --- | --- | --- | --- | --- | --- | --- | --- | --- | --- | --- | --- | --- | --- | --- | --- | --- | --- | --- | --- | --- | --- | --- | --- | --- | --- | --- | --- | --- | --- | --- | --- | --- | --- | --- | --- |
| Cc1ccc(C23CNCC2C3)cc1 (stereo not given) [bicifadine] | 103% | 99% | 106% | 110% | 97.4% | 115% | 96% | 104% | 105% | 103% | 99.7% | 88.8% | 100% | 96.3% | 94.7% | 96.8% | 98.9% | 103% | 102% | 96.4% | 97.7% | 93.8% | 98.8% | 96.3% | 99.8% | > 10 µM | > 10 µM | > 10 µM | > 10 µM | > 10 µM | 0 | 0 | 0 | 0 | 0 |
| Cn1cc(C2=C(c3cn(CCCSC(=N)N)c4ccccc34)C(=O)NC2=O)c2ccccc21 [bisindolylmaleimide-IX] | 100% | 97.7% | 101% | 94.9% | 25.3% | 112% | 96.4% | 100% | 91.2% | 18.1% | 98.6% | 104% | 105% | 96.8% | 5.1% | 105% | 100% | 106% | 103% | 5.7% | 91.7% | 101% | 89.3% | 92.6% | 15% | 2.61 µM | 2.28 µM | 2.92 µM | 3.32 µM | 2.45 µM | 4.9 | 6 | 5.7 | 5 | 5.9 |
| CC(C)(C)OC(=O)c1ncn2c1[C@@H]1CCCN1C(=O)c1c(Br)cccc1-2 [bretazenil] | 94% | 93.9% | 99.3% | 96.1% | 100% | 90% | 92.9% | 98.2% | 99.8% | 96% | 83.1% | 94.1% | 95.2% | 105% | 103% | 98.2% | 98.8% | 105% | 92.6% | 98.2% | 91.1% | 100% | 95.5% | 96.5% | 104% | > 10 µM | > 10 µM | > 10 µM | > 10 µM | > 10 µM | 0 | 0 | 0 | 0 | 0 |
| CCC(C(=O)O)c1ccc(CC(C)C)cc1 (stereo not given) [butibufen] | 102% | 92.8% | 103% | 94.4% | 99.3% | 97.1% | 105% | 99.9% | 113% | 105% | 107% | 101% | 99% | 110% | 106% | 97.4% | 95.5% | 97.9% | 102% | 104% | 93.3% | 92.5% | 87.6% | 95.9% | 105% | > 10 µM | > 10 µM | > 10 µM | > 10 µM | > 10 µM | 0 | 0 | 0 | 0 | 0 |
| C[C@H](CS)C(=O)N1CCC[C@H]1C(=O)O [captopril] | 96.1% | 92.8% | 96.8% | 90.9% | 89.6% | 103% | 111% | 93.4% | 95.4% | 97.4% | 99.5% | 95.7% | 105% | 95.3% | 108% | 98.6% | 101% | 94.9% | 98% | 97.3% | 108% | 100% | 107% | 100% | 96.6% | > 10 µM | > 10 µM | > 10 µM | > 10 µM | > 10 µM | 0 | 0 | 0 | 0 | 0 |
| CC1(C)S[C@@H]2[C@H](NC(=O)C(C(=O)O)c3ccccc3)C(=O)N2[C@H]1C(=O)O (stereo not given in full) [carbenicillin] | 104% | 106% | 92.5% | 93.9% | 94.9% | 105% | 98.3% | 103% | 105% | 99.9% | 97.2% | 100% | 103% | 103% | 98% | 103% | 102% | 98.8% | 102% | 96% | 102% | 100% | 102% | 95.7% | 95.7% | > 10 µM | > 10 µM | > 10 µM | > 10 µM | > 10 µM | 0 | 0 | 0 | 0 | 0 |
